Measurements as given in ChEMBL document CHEMBL1201862, “PubChem BioAssay data set” (2004).
Values belong to the compound of their own block, whether it stands above or below them. Active and inactive are the calls of the source.

Experiments:
[1] = target: T1, Probable nicotinate-nucleotide adenylyltransferase (Staphylococcus aureus (strain N315), UniProt P65502); type: functional, Staphylococcus aureus subsp. aureus N315;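 on IC50 Mean: confirmatory dose-response retesting of NadD inhibitor hits first found in an ultra-high-throughput screen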
[2] = target: T1, Probable nicotinate-nucleotide adenylyltransferase; type: functional, Staphylococcus aureus subsp. aureus N315; settings: read-out: IC50_Mean
Steroidogenic factor 1 = Steroidogenic factor 1 (Homo sapiens, UniProt Q13285); assay: Counterscreen for inverse agonists of the liver receptor homolog-1 (LRH-1; NR5A2): Luminescence-based cell-based high throughput dose response assay to identify inverse agonists of the Steroidogenic Factor 1 Nuclear Receptor (SF1; NR5A1).; type: functional
[3] = StAR promoter reporter inhibition counter-screen, dose response, counter-screen for LRH-1 inverse agonist project, cell-based, luminescence, luciferase reporter (AID 651969); type: functional
[4] = target: Nuclear receptor subfamily 5 group A member 2 (Homo sapiens, UniProt O00482); type: functional, cell-based;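 further: HEK293T cells transfected with LRH-1 and a StAR promoter luciferase reporter; potency for inhibitors that lower LRH-1 driven reporter light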
[5] = target: T2, Methionyl-tRNA synthetase, putative (Trypanosoma brucei brucei, UniProt Q38C91); type: functional, Trypanosoma brucei brucei strain 927/4 GUTat10.1
T2 sequence (Q38C91 whole entry): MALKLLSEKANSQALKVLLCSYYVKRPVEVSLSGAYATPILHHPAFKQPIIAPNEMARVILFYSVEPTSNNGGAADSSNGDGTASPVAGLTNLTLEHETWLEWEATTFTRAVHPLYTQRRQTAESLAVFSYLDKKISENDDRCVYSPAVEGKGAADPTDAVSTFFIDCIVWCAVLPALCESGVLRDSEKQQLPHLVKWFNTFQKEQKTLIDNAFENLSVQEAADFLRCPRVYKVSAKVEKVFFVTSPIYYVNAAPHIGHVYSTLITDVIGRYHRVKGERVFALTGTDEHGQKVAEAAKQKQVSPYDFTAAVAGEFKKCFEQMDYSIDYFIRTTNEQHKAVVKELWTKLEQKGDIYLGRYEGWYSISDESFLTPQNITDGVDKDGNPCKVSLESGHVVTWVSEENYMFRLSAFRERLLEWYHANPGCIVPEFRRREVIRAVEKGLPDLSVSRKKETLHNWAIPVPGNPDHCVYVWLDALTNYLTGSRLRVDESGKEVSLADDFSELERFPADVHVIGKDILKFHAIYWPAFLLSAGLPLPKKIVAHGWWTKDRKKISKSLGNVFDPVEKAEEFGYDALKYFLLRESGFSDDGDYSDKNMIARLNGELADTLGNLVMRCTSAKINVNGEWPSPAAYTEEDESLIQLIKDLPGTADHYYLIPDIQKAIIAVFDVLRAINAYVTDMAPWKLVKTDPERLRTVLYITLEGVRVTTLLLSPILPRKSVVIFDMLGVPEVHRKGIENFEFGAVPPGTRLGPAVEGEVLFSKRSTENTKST

[6] = Counterscreen for inhibitors of Trypanosoma brucei methionyl tRNA synthetase (MetRS): Luminescence-based cell-based high throughput dose response assay to identify compounds that are cytotoxic to Jurkat human T lymphocyte cells.; type: functional
[7] = target: T2, Methionyl-tRNA synthetase, putative; type: functional, Trypanosoma brucei brucei strain 927/4 GUTat10.1; remark: listed apart in the source
[8] = HEp-2 cell cytotoxicity, dose response, cytotoxicity control for RSV inhibitor project, HTS (AID 2410); type: functional; settings: human respiratory syncytial virus
[9] = target: T3, ATP-dependent translocase ABCB1 (Homo sapiens, UniProt P08183); assay: ABCB1 efflux inhibitor potency, dose response, Jurkat-DNR cells, JC-1, flow cytometry, set 2 (AID 504569); type: functional; settings: read-out: EC50_MICROM_;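 further: potency of pump inhibitors that raise cellular JC-1 green fluorescence up to the nicardipine level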
[10] = target: T3, ATP-dependent translocase ABCB1; assay: ABCG2 efflux pump inhibitor potency, dose response, Ig-MXP3 cells, JC-1, flow cytometry, set 2 (AID 504566); type: functional; settings: read-out: EC50_MICROM_;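 further: flow cytometry median green fluorescence of retained JC-1 dye; potency of efflux pump inhibition measured as rising substrate retention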
[11] = target: T4, Corticotropin-releasing factor receptor 2/Corticotropin-releasing factor-binding protein (Homo sapiens, UniProt P24387+Q13324); assay: activators of CRF receptor 2 with binding protein – uHTS hits, confirmation (AID 602473); type: functional; settings: read-out: EC50_Mean
T4 sequence (Q13324 whole entry): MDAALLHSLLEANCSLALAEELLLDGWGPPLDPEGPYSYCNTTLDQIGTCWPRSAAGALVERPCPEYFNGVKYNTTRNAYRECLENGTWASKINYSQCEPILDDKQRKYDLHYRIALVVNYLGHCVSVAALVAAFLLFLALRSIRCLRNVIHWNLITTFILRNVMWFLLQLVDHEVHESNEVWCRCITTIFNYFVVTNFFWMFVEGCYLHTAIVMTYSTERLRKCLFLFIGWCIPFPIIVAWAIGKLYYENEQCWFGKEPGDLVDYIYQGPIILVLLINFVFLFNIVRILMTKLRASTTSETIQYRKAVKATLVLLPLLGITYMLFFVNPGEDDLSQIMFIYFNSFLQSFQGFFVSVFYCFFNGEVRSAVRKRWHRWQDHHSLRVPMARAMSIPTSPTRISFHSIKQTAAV
T4 sequence (P24387 whole entry): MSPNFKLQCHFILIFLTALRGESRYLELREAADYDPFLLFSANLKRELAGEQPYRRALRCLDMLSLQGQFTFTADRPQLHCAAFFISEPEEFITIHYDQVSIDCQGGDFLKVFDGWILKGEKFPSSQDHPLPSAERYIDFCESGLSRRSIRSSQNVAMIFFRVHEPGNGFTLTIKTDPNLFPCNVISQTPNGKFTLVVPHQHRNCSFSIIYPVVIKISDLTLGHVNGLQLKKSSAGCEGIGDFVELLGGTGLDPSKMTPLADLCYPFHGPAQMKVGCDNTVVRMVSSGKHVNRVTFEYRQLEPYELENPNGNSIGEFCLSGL

[12] = CRF-BP/CRF-R2 complex antagonists, dose response, cell-based, uHTS hits, 384-well (AID 651639); type: functional, Homo sapiens; settings: read-out: IC50_Mean
[13] = target: T4, Corticotropin-releasing factor receptor 2/Corticotropin-releasing factor-binding protein; assay: Dose Response confirmation of uHTS hits for small molecule antagonists of the CRF-binding protein and CRF-R2 receptor complex.; type: functional; settings: read-out: IC50_Mean
[14] = target: T5, Rac GTPase-activating protein 1 (Homo sapiens, UniProt Q9H0H5); assay: MgcRacGAP GTPase-activating activity inhibitors, confirmation, biochemical, ADP Hunter fluorescence, primary and confirmatory (AID 624330); type: functional
T5 sequence (Q9H0H5 whole entry): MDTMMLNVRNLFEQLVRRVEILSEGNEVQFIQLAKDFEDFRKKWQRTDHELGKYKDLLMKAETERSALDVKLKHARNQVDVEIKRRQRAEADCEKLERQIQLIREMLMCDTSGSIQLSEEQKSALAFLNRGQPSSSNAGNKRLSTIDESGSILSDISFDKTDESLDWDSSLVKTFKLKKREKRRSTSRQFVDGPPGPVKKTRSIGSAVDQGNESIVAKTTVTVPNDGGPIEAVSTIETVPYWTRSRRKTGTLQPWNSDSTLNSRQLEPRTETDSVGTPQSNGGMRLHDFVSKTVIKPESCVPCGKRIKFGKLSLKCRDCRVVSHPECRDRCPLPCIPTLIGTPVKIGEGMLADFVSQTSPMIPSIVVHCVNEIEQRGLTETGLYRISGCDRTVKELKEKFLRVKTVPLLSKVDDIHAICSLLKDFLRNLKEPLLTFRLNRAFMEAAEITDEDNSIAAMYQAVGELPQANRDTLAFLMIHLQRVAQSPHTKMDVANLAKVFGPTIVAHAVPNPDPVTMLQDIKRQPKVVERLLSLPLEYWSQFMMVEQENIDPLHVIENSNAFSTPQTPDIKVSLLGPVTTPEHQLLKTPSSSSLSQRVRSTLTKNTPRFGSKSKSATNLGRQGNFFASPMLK

[15] = target: Heat shock protein HSP 90-alpha (Homo sapiens, UniProt P07900); type: functional, organism-based
[16] = target: T6, Low molecular weight phosphotyrosine protein phosphatase (Homo sapiens, UniProt P24666); type: functional; settings: read-out: IC50_Mean
T6 sequence (P24666 whole entry): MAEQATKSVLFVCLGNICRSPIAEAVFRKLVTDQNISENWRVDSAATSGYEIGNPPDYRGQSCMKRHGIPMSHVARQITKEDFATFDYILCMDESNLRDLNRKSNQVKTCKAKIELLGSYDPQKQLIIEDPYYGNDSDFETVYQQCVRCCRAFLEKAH

[17] = target: T6, Low molecular weight phosphotyrosine protein phosphatase; type: functional; settings: read-out: IC50_Mean; remark: listed apart in the source
[18] = target: T7, Short transient receptor potential channel 4 (Mus musculus, UniProt Q9QUQ5); assay: mouse TRPC4 channel inhibitors, dose response, cell-based, HEK293 TRPC4/mu-opioid, Fluo-4 calcium (AID 434942); type: functional;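 further: potency of inhibitors blocking the TRPC4 calcium response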
T7 sequence (Q9QUQ5 whole entry): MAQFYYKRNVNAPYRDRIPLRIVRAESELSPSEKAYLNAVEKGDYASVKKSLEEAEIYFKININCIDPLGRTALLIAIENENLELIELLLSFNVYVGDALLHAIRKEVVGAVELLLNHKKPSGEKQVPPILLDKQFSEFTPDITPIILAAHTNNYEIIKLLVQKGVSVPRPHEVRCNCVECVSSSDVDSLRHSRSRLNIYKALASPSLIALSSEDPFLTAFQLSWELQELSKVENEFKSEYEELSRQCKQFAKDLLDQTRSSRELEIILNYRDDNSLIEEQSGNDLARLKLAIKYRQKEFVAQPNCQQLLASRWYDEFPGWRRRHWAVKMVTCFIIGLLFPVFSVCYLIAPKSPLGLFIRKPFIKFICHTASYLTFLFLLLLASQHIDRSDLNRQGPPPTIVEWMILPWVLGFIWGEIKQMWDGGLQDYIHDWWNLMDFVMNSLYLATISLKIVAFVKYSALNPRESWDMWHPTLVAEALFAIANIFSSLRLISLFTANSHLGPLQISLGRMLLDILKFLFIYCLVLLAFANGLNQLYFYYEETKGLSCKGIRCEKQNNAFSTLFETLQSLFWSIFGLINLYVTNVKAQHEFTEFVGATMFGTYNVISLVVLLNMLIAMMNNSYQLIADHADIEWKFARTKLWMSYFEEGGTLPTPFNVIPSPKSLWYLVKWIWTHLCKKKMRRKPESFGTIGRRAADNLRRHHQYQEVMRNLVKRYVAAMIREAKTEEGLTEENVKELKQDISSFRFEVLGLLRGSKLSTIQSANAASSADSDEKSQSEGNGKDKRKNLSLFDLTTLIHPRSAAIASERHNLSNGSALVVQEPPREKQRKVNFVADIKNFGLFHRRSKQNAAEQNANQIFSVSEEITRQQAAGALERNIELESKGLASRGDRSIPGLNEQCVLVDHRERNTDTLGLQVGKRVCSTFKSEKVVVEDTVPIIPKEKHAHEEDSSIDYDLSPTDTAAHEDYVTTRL

[19] = target: Photoreceptor-specific nuclear receptor (Homo sapiens, UniProt Q9Y5X4); type: functional, cell-based;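 further: CHO-S cells with Gal4-NCOR and VP16-NR2E3 two-hybrid luciferase reporter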
Photoreceptor-specific nuclear receptor, sequence (Q9Y5X4 whole entry, the tested form may be a part): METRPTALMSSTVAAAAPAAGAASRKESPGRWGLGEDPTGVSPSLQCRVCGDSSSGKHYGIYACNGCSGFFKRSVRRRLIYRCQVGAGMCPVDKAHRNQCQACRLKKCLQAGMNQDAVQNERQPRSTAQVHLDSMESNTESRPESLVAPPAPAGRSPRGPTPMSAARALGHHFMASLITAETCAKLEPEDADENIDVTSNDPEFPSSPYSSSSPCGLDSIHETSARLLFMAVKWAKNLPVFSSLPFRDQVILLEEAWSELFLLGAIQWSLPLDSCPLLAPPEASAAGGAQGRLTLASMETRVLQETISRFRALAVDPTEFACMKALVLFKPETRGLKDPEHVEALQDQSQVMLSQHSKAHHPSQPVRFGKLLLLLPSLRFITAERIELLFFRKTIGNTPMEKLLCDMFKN

T3 sequence (P08183 whole entry): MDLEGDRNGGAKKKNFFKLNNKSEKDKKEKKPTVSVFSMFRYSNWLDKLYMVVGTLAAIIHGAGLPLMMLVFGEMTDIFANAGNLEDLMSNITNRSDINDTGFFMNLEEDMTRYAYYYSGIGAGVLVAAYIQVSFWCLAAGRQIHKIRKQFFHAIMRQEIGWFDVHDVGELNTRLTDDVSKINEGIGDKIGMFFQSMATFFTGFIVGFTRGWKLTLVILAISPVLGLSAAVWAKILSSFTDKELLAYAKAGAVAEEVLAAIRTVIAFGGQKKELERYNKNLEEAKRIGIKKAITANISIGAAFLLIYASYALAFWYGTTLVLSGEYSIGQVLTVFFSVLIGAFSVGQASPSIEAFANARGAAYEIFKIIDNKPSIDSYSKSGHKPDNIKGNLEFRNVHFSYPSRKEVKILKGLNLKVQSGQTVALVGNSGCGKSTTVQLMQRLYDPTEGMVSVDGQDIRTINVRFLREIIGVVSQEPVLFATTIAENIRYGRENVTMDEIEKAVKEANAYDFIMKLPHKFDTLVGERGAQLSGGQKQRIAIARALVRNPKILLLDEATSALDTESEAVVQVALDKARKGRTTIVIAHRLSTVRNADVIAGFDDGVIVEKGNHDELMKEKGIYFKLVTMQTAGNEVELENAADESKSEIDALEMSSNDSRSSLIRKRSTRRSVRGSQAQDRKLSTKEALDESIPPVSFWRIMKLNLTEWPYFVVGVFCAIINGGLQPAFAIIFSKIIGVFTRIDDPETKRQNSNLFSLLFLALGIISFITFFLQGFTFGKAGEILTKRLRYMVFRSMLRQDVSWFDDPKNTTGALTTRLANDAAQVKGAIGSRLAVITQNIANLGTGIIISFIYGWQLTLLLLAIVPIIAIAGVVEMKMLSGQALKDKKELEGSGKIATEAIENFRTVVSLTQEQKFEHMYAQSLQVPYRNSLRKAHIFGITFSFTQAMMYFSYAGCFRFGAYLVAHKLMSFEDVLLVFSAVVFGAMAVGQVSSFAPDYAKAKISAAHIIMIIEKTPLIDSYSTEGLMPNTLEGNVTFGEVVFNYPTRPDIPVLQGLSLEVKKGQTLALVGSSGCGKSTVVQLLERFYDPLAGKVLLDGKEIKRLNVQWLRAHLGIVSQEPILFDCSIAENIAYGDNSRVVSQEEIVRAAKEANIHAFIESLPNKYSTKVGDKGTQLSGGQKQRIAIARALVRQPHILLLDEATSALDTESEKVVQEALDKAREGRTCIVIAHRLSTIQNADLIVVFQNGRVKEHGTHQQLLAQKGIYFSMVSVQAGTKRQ
Steroidogenic factor 1, sequence (Q13285 whole entry): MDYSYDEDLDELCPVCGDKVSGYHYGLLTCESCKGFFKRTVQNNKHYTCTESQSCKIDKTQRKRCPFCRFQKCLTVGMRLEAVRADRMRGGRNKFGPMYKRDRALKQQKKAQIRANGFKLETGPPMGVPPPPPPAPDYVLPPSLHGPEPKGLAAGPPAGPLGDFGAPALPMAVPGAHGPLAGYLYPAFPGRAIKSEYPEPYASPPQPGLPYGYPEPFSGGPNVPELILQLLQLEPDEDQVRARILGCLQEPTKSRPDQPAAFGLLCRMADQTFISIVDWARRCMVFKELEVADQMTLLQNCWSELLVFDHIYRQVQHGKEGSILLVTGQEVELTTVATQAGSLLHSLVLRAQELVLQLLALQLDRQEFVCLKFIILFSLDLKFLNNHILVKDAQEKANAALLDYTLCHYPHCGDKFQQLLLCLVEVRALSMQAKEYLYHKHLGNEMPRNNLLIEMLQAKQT
Nuclear receptor subfamily 5 group A member 2, sequence (O00482 whole entry): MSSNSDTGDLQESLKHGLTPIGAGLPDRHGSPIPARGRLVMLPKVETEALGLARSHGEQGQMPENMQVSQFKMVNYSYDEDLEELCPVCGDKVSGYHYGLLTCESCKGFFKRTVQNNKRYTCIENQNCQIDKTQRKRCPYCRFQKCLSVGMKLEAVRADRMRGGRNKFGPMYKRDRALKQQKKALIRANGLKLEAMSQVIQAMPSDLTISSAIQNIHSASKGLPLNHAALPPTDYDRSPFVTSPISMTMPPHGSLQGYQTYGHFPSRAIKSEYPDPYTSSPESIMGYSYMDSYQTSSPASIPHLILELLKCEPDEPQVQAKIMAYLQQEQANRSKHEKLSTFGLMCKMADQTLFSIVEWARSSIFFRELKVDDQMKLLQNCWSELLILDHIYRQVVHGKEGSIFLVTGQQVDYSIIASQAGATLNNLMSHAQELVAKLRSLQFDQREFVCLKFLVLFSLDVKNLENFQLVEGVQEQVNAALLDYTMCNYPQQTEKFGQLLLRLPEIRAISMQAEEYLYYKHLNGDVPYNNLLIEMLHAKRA

- IC50 [1]: 6.06 µM (active)
- IC50 [2]: 20.4 µM (active)
Structure (SMILES): Cc1ccc(-n2nc3c(c2NC(=O)/C=C\c2ccc4c(c2)OCO4)CSC3)cc1

- IC50 [1]: 23.5 µM (active)
- IC50 [2]: 55.6 µM (active)
Structure (SMILES): COC(=O)[C@H](CC(C)C)N1Cc2cc(OC)cc(OC)c2-c2ccccc2S1(=O)=O

Structure (SMILES): CC(=O)Nc1ncc(Cc2cc(Cl)ccc2Cl)s1
- IC50 (Steroidogenic factor 1): 2.14 µM (active)
- IC50 [3]: 35.9 µM (inactive)
- IC50 [4]: 1.33 µM (active)

Structure (SMILES): O=C(NCc1nc2ccccc2[nH]1)C1=C[C@H](c2csc3ccccc23)C[C@H](OCc2ccc(CO)cc2)O1
- IC50 [5]: 1.58 µM (active)
- IC50 [6]: 47.7 µM (inactive)
- IC50 [7]: 3.54 µM (active)
- CC50 [8]: 41.1 µM (active)

- EC50 [9]: 3.04 µM (active)
- EC50 [10]: 2.04 µM (active)
Structure (SMILES): COc1ccc(C(=O)N2CCN(c3cc(-c4ccccc4)nc4cc(-c5cccc(Cl)c5)nn34)CC2)cc1

- EC50 [11]: > 53 µM (inactive)
- IC50 [12]: > 20 µM (inactive)
- IC50 [13]: 39.6 µM (active)
- IC50 [14]: 41.7 µM (active)
Structure (SMILES): COc1ccc(C)cc1NCc1cccc(OC)c1OC

Structure (SMILES): O=C(CSc1nncc(O)n1)Nc1cccc([N+](=O)[O-])c1
- IC50 (Steroidogenic factor 1): 3.98 µM (active)
- IC50 [3]: 13.7 µM (inactive)
- IC50 [4]: 3.98 µM (active)

- AC50 [15]: 7.93 µM (active)
- EC50 [9]: 3.25 µM (inactive)
- EC50 [10]: 7.22 µM (active)
Structure (SMILES): Cc1cc(N2CCN(C(=O)c3ccco3)CC2)n2nc(C)c(-c3ccccc3)c2n1

- IC50 [16]: 7.12 µM (active)
- IC50 [17]: 22.6 µM (inactive)
Structure (SMILES): Cc1cccc(-c2nc(NCCCN3CCOCC3)c3ccccc3n2)c1

- EC50 [11]: 34.8 µM (active)
- EC50 [18]: 4.73 µM (active)
- IC50 [12]: > 20 µM (inactive)
- IC50 [13]: 0.545 µM (active)
Structure (SMILES): COc1ccc(/C=C2\SC(=S)N(C(Cc3ccccc3)C(=O)O)C2=O)cc1 (stereo not drawn)

- IC50 [16]: 63.3 µM (inactive)
- IC50 [17]: 10.5 µM (active)
Structure (SMILES): CCC(C)Nc1nc(-c2ccc3c(c2)NC(=O)CO3)cs1 (stereo not drawn)

- IC50 [19]: 3.75 µM (active)
Structure (SMILES): Cc1ccc(NC(=O)CNC(=O)c2cccc(C)c2)nc1

- IC50 [19]: 2.47 µM (active)
Structure (SMILES): O=S(=O)(NC1CCCC1)c1ccc(S(=O)(=O)N2CCc3ccccc32)cc1
